In patent US11746098B2, “Proteasome activity enhancing compounds” (Proteostasis Therapeutics, Inc., priority 2018, dated 2023):

These compounds were tested against USP14 (Homo sapiens, UniProt P54578) (assay: USP14 Inhibition Assay). Conditions: average value from a minimum of two experimental determinations, read-out: IC50 Category.
Type: biochemical
Text: The activity of the compound described herein to inhibit USP14 can be measured using previously described methodology [B. H. Lee et al. Nature 2010, 467 (9), 179, the contents of which are expressly incorporated by reference herein].
Example 6: USP14 Inhibition Assay

Compound | IC50 [µM]
COc1cc(NS(=O)(=O)c2ccc(-n3c(C)cc(C(=O)CN4CCCCC4)c3C)cc2)nc(OC)n1 [Compound 1, N-(2,6-Dimethoxypyrimidin-4-yl)-4-(2,5-dimethyl-3-(2-(piperidin-1-yl)acetyl)-1H-pyrrol-1-yl)benzenesulfonamide] | > 5
Cc1cc(C(=O)CN2CCC[C@@H]2C(N)=O)c(C)n1-c1ccc(Cl)cc1 [Compound 3, (R)-1-(2-(1-(4-Chlorophenyl)-2,5-dimethyl-1H-pyrrol-3-yl)-2-oxoethyl)pyrrolidine-2-carboxamide] | > 5
COc1cc(NS(=O)(=O)c2ccc(-n3c(C)cc(C(=O)CN4CCCC4)c3C)cc2)nc(OC)n1 [Compound 4, N-(2,6-Dimethoxypyrimidin-4-yl)-4-(2,5-dimethyl-3-(2-(pyrrolidin-1-yl)acetyl)-1H-pyrrol-1-yl)benzenesulfonamide] | > 5
Cc1cc(C(=O)CN2CCCC2)c(C)n1-c1cccc2ccccc12 [Compound 8, 1-(2,5-Dimethyl-1-(naphthalen-1-yl)-1H-pyrrol-3-yl)-2-(pyrrolidin-1-yl)ethanone] | > 5
Cc1cc(C(=O)CN[C@H](C)C2CCCCC2)c(C)n1-c1ccc(Cl)cc1 [Compound 11, (R)-1-(1-(4-Chlorophenyl)-2,5-dimethyl-1H-pyrrol-3-yl)-2-((1-cyclohexylethyl)amino)ethan-one] | > 5
Cc1cc(C(=O)CN2CCCCC2)c(C)n1-c1cc(F)cc(F)c1 [Compound 14, 1-(1-(3,5-Difluorophenyl)-2,5-dimethyl-1H-pyrrol-3-yl)-2-(piperidin-1-yl)ethanone] | > 5
Cc1cc(C(=O)CN2CCCC2)c(C)n1-c1cc(Cl)cc(Cl)c1 [Compound 16, 1-(1-(3,5-Dichlorophenyl)-2,5-dimethyl-1H-pyrrol-3-yl)-2-(pyrrolidin-1-yl)ethanone] | > 5
Cc1cc(C(=O)CN2CCCCC2)c(C)n1-c1cc(Cl)cc(Cl)c1 [Compound 17, 1-(1-(3,5-Dichlorophenyl)-2,5-dimethyl-1H-pyrrol-3-yl)-2-(piperidin-1-yl)ethanone] | > 5
Cc1cc(C(=O)CN2CCCC2)c(C)n1-c1cc(F)cc(F)c1 [Compound 22, 1-(1-(3,5-Difluorophenyl)-2,5-dimethyl-1H-pyrrol-3-yl)-2-(pyrrolidin-1-yl)ethanone] | > 5
Cc1cc(Cl)cc(C)c1-n1ccc(C(=O)CN2CCCC2)c1 [Compound 23, 1-(1-(4-Chloro-2,6-dimethylphenyl)-1H-pyrrol-3-yl)-2-(pyrrolidin-1-yl)ethanone] | > 5
Cc1cc(Cl)cc(C)c1-n1ccc(C(=O)CN2CCC(O)CC2)c1 [Compound 24, 1-(1-(4-Chloro-2,6-dimethylphenyl)-1H-pyrrol-3-yl)-2-(4-hydroxypiperidin-1-yl)ethanone] | > 5
Cc1cc(Cl)cc(C)c1-n1ccc(C(=O)CN2CCCCC2)c1 [Compound 26, 1-(1-(4-Chloro-2,6-dimethylphenyl)-1H-pyrrol-3-yl)-2-(piperidin-1-yl)ethanone] | > 5
Cc1cc(Cl)cc(C)c1-n1cccc1C(=O)CN1CCCCC1 [Compound 27, 1-(1-(4-Chloro-2,6-dimethylphenyl)-1H-pyrrol-2-yl)-2-(piperidin-1-yl)ethanone] | > 5
Cc1cc(Cl)cc(C)c1-n1cccc1C(=O)CN1CCCC1 [Compound 28, 1-(1-(4-Chloro-2,6-dimethylphenyl)-1H-pyrrol-2-yl)-2-(pyrrolidin-1-yl)ethanone] | > 5
Cc1cc(C(=O)CN2CCCCC2)c(C)n1[C@H]1CC[C@@H](F)CC1 [Compound 32, 1-(1-(cis-4-Fluorocyclohexyl)-2,5-dimethyl-1H-pyrrol-3-yl)-2-(piperidin-1-yl)ethanone] | > 5
Cc1ccc(C(=O)CN2CCCCC2)n1-c1ccc(Cl)cc1 [Compound 33, 1-(1-(4-Chlorophenyl)-5-methyl-1H-pyrrol-2-yl)-2-(piperidin-1-yl)ethanone] | > 5
Cc1cc(C(=O)CN2CCCCC2)c(C)n1C1CCC1 [Compound 35, 1-(1-Cyclobutyl-2,5-dimethyl-1H-pyrrol-3-yl)-2-(piperidin-1-yl)ethanone] | > 5
Cc1cc(C(=O)CC2CCCNC2)c(C)n1-c1ccc(Cl)cc1 (stereo not shown) [Compound 38, 1-(1-(4-Chlorophenyl)-2,5-dimethyl-1H-pyrrol-3-yl)-2-(piperidin-3-yl)ethanone] | > 5
Cc1cc(C(=O)CC2CCNCC2)c(C)n1-c1ccc(Cl)cc1 [Compound 39, 1-(1-(4-Chlorophenyl)-2,5-dimethyl-1H-pyrrol-3-yl)-2-(piperidin-4-yl)ethanone] | > 5
Cc1cc(C(=O)CNCC2COC(C)(C)O2)c(C)n1-c1ccc(Cl)cc1 (stereo not shown) [Compound 40, 1-(1-(4-Chlorophenyl)-2,5-dimethyl-1H-pyrrol-3-yl)-2-(((2,2-dimethyl-1,3-dioxolan-4-yl)methyl)amino)ethanone] | > 5
Cc1cc(C(=O)CNCCOCc2ccccc2)c(C)n1-c1ccc(Cl)cc1 [Compound 41, 2-((2-(Benzyloxy)ethyl)amino)-1-(1-(4-chlorophenyl)-2,5-dimethyl-1H-pyrrol-3-yl)ethanone] | > 5
Cc1cc(C(=O)CNCCOCc2ccccc2)c(C)n1-c1ccc(C#N)cc1 [Compound 42, 4-(3-(2-((2-(Benzyloxy)ethyl)amino)acetyl)-2,5-dimethyl-1H-pyrrol-1-yl)benzonitrile] | > 5
Cc1cc(C(=O)CN(CCOCc2ccccc2)CC(=O)c2cc(C)n(-c3ccc(C#N)cc3)c2C)c(C)n1-c1ccc(C#N)cc1 [Compound 43, 4,4′-(3,3′-(2,2′-((2-(Benzyloxy)ethyl)azanediyl)bis(acetyl))bis(2,5-dimethyl-1H-pyrrole-3,1-diyl))dibenzonitrile] | > 5
Cc1cc(C(=O)C[N+]2(C)CCCCC2)c(C)n1-c1ccc(Cl)cc1 [Compound 44, 1-(2-(1-(4-Chlorophenyl)-2,5-dimethyl-1H-pyrrol-3-yl)-2-oxoethyl)-1-methylpiperidin-1-ium Iodide] | > 5
Cc1cc(C(=O)CN2CCCCC2)c(C)n1[C@H]1CC[C@@H](C(=O)OCc2ccccc2)CC1 [Compound 45, cis-Benzyl 4-(2,5-dimethyl-3-(2-(piperidin-1-yl)acetyl)-1H-pyrrol-1-yl)cyclohexanecarboxylate] | > 5

Now from value to compound:

IC50 [µM] | Compound
> 5 | COc1cc(NS(=O)(=O)c2ccc(-n3c(C)cc(C(=O)CN4CCC(O)CC4)c3C)cc2)nc(OC)n1 [Compound 2, N-(2,6-Dimethoxypyrimidin-4-yl)-4-(3-(2-(4-hydroxypiperdin-1-yl)acetyl)-2,5-dimethyl-1H-pyrrol-1-yl)benzenesulfonamide]
> 5 | Cc1cc(C(=O)CN2CCCCC2)c(C)n1-c1cccc2ccccc12 [Compound 5, 1-(2,5-Dimethyl-1-(naphthalen-1-yl)-1H-pyrrol-3-yl)-2-(piperidin-1-yl)ethanone]
> 5 | Cc1cc(C(=O)CN2CCCCC2)c(C)n1-c1ccc(O)cc1 [Compound 7, 1-(1-(4-Hydroxyphenyl)-2,5-dimethyl-1H-pyrrol-3-yl)-2-(piperidin-1-yl)ethanone]
> 5 | Cc1cc(C(=O)CN2CCC(O)CC2)c(C)n1-c1cccc2ccccc12 [Compound 9, 1-(2,5-Dimethyl-1-(naphthalen-1-yl)-1H-pyrrol-3-yl)-2-(4-hydroxypiperidin-1-yl)ethanone]
> 5 | Cc1cc(C(=O)CN2CCCCC2)c(C)n1-c1ccc(S(C)(=O)=O)cc1 [Compound 12, 1-(2,5-Dimethyl-1-(4-(methylsulfonyl)phenyl)-1H-pyrrol-3-yl)-2-(piperidin-1-yl)ethanone]
> 5 | Cc1cc(C(=O)CN2CCC(O)CC2)c(C)n1-c1ccc(S(C)(=O)=O)cc1 [Compound 13, 1-(2,5-Dimethyl-1-(4-(methylsulfonyl)phenyl)-1H-pyrrol-3-yl)-2-(4-hydroxypiperidin-1-yl)ethanone]
> 5 | Cc1cc(C(=O)CN2CCC(O)CC2)c(C)n1-c1cc(F)cc(F)c1 [Compound 15, 1-(1-(3,5-Difluorophenyl)-2,5-dimethyl-1H-pyrrol-3-yl)-2-(4-hydroxypiperidin-1-yl)ethanone]
> 5 | Cc1cc(C(=O)CN2CCC(O)CC2)c(C)n1-c1cc(Cl)cc(Cl)c1 [Compound 18, 1-(1-(3,5-Dichlorophenyl)-2,5-dimethyl-1H-pyrrol-3-yl)-2-(4-hydroxypiperidin-1-yl)ethanone]
> 5 | Cc1cc(C(=O)CN2CCCC2)c(C)n1-c1ccc(O)cc1 [Compound 19, 1-(1-(4-Hydroxyphenyl)-2,5-dimethyl-1H-pyrrol-3-yl)-2-(pyrrolidin-1-yl)ethanone]
> 5 | Cc1cc(C(=O)CN2CCC(O)CC2)c(C)n1-c1ccc(O)cc1 [Compound 20, 1-(1-(4-Hydroxyphenyl)-2,5-dimethyl-1H-pyrrol-3-yl)-2-(4-hydroxypiperidin-1-yl)ethanone]
> 5 | Cc1cc(C(=O)CN2CCC(O)CC2)c(C)n1-c1ccc(C(F)(F)F)cc1 [Compound 21, 1-(2,5-Dimethyl-1-(4-(trifluoromethyl)phenyl)-1H-pyrrol-3-yl)-2-(4-hydroxypiperidin-1-yl)ethanone]
> 5 | Cc1cc(C(=O)CN2CCC(C(=O)O)CC2)c(C)n1-c1ccc(Cl)cc1 [Compound 25, 1-(2-(1-(4-Chlorophenyl)-2,5-dimethyl-1H-pyrrol-3-yl)-2-oxoethyl)piperidine-4-carboxylic acid]
> 5 | Cc1cc(Cl)cc(C)c1-n1cccc1C(=O)CN1CCC(O)CC1 [Compound 29, 1-(1-(4-Chloro-2,6-dimethylphenyl)-1H-pyrrol-2-yl)-2-(4-hydroxypiperidin-1-yl)ethanone]
> 5 | Cc1cc(C(=O)CN2CCC(O)CC2)c(C)n1C1CCC1 [Compound 36, 1-(1-Cyclobutyl-2,5-dimethyl-1H-pyrrol-3-yl)-2-(4-hydroxypiperidin-1-yl)ethanone]
> 5 | Cc1cc(C(=O)CN2CCC(C(=O)OCc3ccccc3)CC2)c(C)n1C1CCC1 [Compound 37, Benzyl 1-(2-(1-cyclobutyl-2,5-dimethyl-1H-pyrrol-3-yl)-2-oxoethyl)piperidine-4-carboxylate]
